Assays:
Assay in all cases: stopped-flow UV-vis
Format in all cases: biochemical
Conditions in all cases: oxidant reacting with Cu(I) enzyme, no polysaccharide substrate; 100 uM enzyme, 500 uM oxidant
TaAA9 = biological target: T1, TaAA9 (Thermoascus aurantiacus, UniProt G3XAP7)
T1 construct: gene LPMO9A; mature secreted AA9 LPMO, Cu(I) form; host and construct only in supplement

LsAA9 = biological target: T2, LsAA9 (Panus similis, UniProt A0A0S2GKZ1)
T2 construct: gene LPMO9A; mature secreted AA9 LPMO, Cu(I) form; expressed in Escherichia coli (fungal host also compared); details in supplement
T2 sequence (A0A0S2GKZ1 20-254): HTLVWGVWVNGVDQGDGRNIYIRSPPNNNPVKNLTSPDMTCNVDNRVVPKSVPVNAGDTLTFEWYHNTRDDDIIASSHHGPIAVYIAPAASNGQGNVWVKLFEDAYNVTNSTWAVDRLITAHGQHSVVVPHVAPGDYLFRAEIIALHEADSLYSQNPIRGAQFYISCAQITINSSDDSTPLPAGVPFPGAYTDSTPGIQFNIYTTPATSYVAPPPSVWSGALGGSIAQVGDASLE

CvAA9 = biological target: T3, CvAA9 (Achaetomiella virescens, UniProt A0A223GEC9)
T3 construct: gene AA9A; mature secreted AA9 LPMO, Cu(I) form; host and construct only in supplement
T3 sequence (A0A223GEC9 23-274): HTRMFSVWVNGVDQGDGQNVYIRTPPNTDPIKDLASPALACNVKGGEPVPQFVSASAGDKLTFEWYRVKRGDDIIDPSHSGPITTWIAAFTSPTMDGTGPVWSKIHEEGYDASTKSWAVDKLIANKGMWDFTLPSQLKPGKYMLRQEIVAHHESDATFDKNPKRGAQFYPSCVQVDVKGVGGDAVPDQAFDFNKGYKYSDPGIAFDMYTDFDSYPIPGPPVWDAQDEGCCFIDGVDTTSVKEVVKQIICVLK

T1 sequence (G3XAP7 whole entry): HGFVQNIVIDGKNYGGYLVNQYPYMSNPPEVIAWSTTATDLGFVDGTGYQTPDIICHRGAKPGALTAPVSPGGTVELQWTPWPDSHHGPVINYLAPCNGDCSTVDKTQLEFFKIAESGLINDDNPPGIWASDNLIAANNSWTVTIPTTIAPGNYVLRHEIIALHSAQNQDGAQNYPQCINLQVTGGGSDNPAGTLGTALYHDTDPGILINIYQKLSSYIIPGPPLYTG

**Q.** With O=C(OO)c1cccc(Cl)c1 [m-CPBA, meta-chloro-perbenzoic acid] as the compound, how does the “stopped-flow UV-vis” value (TaAA9) read?
**A.** transient intermediates generated upon oxidation of CuI–TaAA9, CvAA9, and LsAA9 with mCPBA

**Q.** And the “stopped-flow UV-vis” value (LsAA9)?
**A.** transient intermediates generated upon oxidation of CuI–TaAA9, CvAA9, and LsAA9 with mCPBA

**Q.** And the “stopped-flow UV-vis” value (CvAA9)?
**A.** transient intermediates generated upon oxidation of CuI–TaAA9, CvAA9, and LsAA9 with mCPBA
